Experimental data from ChEMBL document CHEMBL3507680, “University of Dundee, Gates Library screen for HepG2 cell viability”.

Test: Human HepG2 cell viability assay in 384 well format
Format: toxicity, cell-based
Set-up: dose 125 nL, time 70.5 hour; concentration not given beside the values
Conditions: HepG2 cells, read-out: Inhibition

| SMILES | cytotoxicity at 70.5 h [%] |
| --- | --- |
| Cc1cnc(CC2COCCN(Cc3nccn3C)C2)cn1 (stereo unspecified) | -1.89 |
| Cn1ccnc1CC1CCCN(C(=O)Cc2ccccc2)C1 (stereo unspecified) | -1.68 |
| CC(C)N1CCC(c2cc(C(F)(F)F)n3ccnc3n2)CC1 | 12.6 |
| CC(=O)N1CCN([C@@H]2CCC[C@@H](N(C)C(=O)C3CC3)[C@H]2O)CC1 | -1.88 |
| CNc1nc(C2CCCN2C(C)=O)nc2c1CN(C1CCCC1)CC2 (stereo unspecified) | -4.73 |
| Cc1csc(C(=O)N2CCC(O)(CN3CCc4ccccc4C3)C2)c1 (stereo unspecified) | -3.4 |
| CN(C)S(=O)(=O)N1CCCC1c1cccc(-n2ccnc2)n1 (stereo unspecified) | -4.96 |
| O=S(=O)(c1ccc(F)cc1)N1CCCCC1c1cc[nH]n1 (stereo unspecified) | -6.41 |
| O=S(=O)(c1ccccc1F)N1CCCCC1c1cc[nH]n1 (stereo unspecified) | -5 |
| Cc1cccc(C(=O)N2CCCCC2c2[nH]ncc2S(C)(=O)=O)c1 (stereo unspecified) | -2.12 |
| CNc1cncc(C2CCCN2C(=O)Cn2c(=O)oc3ccccc32)n1 (stereo unspecified) | -5.11 |
| O=C1CCCN1CCCC(=O)N1CCCC(Cc2cccnc2)C1 (stereo unspecified) | -4.43 |
| CNc1cncc(C2CCCN2C(=O)c2ccc3nc(C)[nH]c3c2)n1 (stereo unspecified) | -3.29 |
| Cc1ncsc1-c1nnc(C2CCN(Cc3ccccc3F)CC2)o1 | -0.587 |
| CC(C)c1nccn1-c1cncc(C2CCCN(C3CCCC3)C2)n1 (stereo unspecified) | 19.3 |
| O=C(C1CCCC1)N1CCCC(c2cccc(-n3ccnc3)n2)C1 (stereo unspecified) | 16.6 |
| NC[C@H]1CC[C@H](C(NC(=O)CC2CCCC2)c2ccccn2)CC1 (stereo partly specified) | -0.374 |
| CNc1ncccc1CN1CCCCC1c1ccnc(N)n1 (stereo unspecified) | -3.08 |
| COc1ccccc1C(=O)NC(c1ccccn1)[C@H]1CC[C@H](CN)CC1 (stereo partly specified) | -4.28 |

| SMILES | cytotoxicity at 70.5 h [%] |
| --- | --- |
| CN1CCc2nc(C3CCCN(C(=O)CC4CCCCC4)C3)ncc2C1 (stereo unspecified) | 0.186 |
| CN(C)S(=O)(=O)N1CCCC(c2cccc(Cc3ccc(F)cc3)n2)C1 (stereo unspecified) | 3.53 |
| COCCN1CCCC(c2nccnc2Nc2nc(C)cs2)C1 (stereo unspecified) | -4.96 |
| CC(C)(C)NC(=O)Cn1c(=O)n(Cc2ccco2)c2ncccc21 | -3.69 |
| CCc1cc(O)nc(C2CCCN(Cc3ccncc3)C2)n1 (stereo unspecified) | -1.03 |
| COc1cc2nc3n(c(=O)c2cc1OC)CCN(C(=O)C1CC1)CC3 | 20 |
| CCN1CCN(Cc2c(-c3ccco3)[nH]c3ncccc23)CC1 | -3.87 |
| Cc1ccc(C(=O)N2CCc3nc4c(C)csc4c(=O)n3CC2)cn1 | -4.08 |
| O=C(C1CCCCC1)N1CCC(c2n[nH]c3nccnc23)CC1 | -2.95 |
| COCc1cc(O)nc(C2CCCN(Cc3ccc(F)cc3)C2)n1 (stereo unspecified) | -0.561 |
| COCc1cc(O)nc(C2CCCN(Cc3cccc(OC)c3)C2)n1 (stereo unspecified) | -1.68 |
| CCn1cc(C(=O)N2CCOC(c3nc(-c4cccs4)no3)C2)cn1 (stereo unspecified) | -2.41 |
| O=C(N[C@@H]1CN(Cc2ccc(F)c(F)c2)C[C@H]1O)c1cscn1 | -5.02 |
| Cc1ccc(C(=O)N2CCC3(CC(N(C)c4ccncn4)C3)C2)cn1 (stereo unspecified) | -2.36 |
| Cc1noc(C)c1C(=O)N1CCC2(CC(N(C)c3ccncn3)C2)C1 (stereo unspecified) | -6.65 |
| CC(=O)NC[C@]1(O)CCN(C(=O)c2ccc3c(c2)CCC3)C[C@H]1O | -3.52 |
| CC(=O)N1CCN([C@@H]2CC[C@@H](N(C)C(=O)C3CCCCC3)[C@H]2O)CC1 | -5.4 |
| Cc1ncsc1CN1CC[C@](C)(O)[C@@H](Oc2cccc(F)c2)C1 | -3.09 |
| CC(=O)NC[C@]1(O)CCN(C(=O)c2ccc3c(c2)OCO3)C[C@H]1O | -4.98 |

| SMILES | cytotoxicity at 70.5 h [%] |
| --- | --- |
| Cc1ncsc1-c1nnc(C2CCN(Cc3cccc(Cl)c3)CC2)o1 | -1.29 |
| Cc1ncsc1-c1nnc(C2CCN(Cc3ccccc3Cl)CC2)o1 | -0.461 |
| CCC(CN1CCCC1)n1cncc1-c1cnn(-c2ccc(F)cc2)c1 (stereo unspecified) | -5.95 |
| CCC(CN1CCCC1)n1cncc1-c1cnn(Cc2ccccc2)c1 (stereo unspecified) | -4.48 |
| CC(=O)Nc1ccc(Oc2cc(C)nc(C3CCNCC3)c2)cc1 | -15.5 |
| CC(Cn1cncc1-c1cnn(Cc2ccccc2)c1)N1CCCCC1 (stereo unspecified) | -1.65 |
| c1ncc(-c2ccc(C3CNCCO3)nc2)cn1 (stereo unspecified) | -3.27 |
| Cc1nc(-c2cncnc2C2CCCNC2)no1 (stereo unspecified) | 26.9 |
| Cc1[nH]c2c(C)cccc2c1CC(=O)N(C)CCN(C)C | -8.69 |
| Cc1cc(C[C@@H]2CCC[C@H]2NCc2ccccc2F)on1 | -2.37 |
| COc1ccc(CN2CCC(c3cc(O)nc(C)n3)C2)c(OC)c1 (stereo unspecified) | -3.26 |
| CN(C)CCN(C)C(=O)Cc1ccc2c(c1)OCCO2 | 0.0835 |
| Cc1nc(O)cc(C2CCN(Cc3ccc(F)c(F)c3)C2)n1 (stereo unspecified) | -5.53 |
| Cc1cccc(CN(Cc2cccnc2)C2CC(C)(C)NC(C)(C)C2)n1 | -1.41 |
| CNc1nc(C2CCCN2C(C)=O)nc2c1CN(CCO)CC2 (stereo unspecified) | -3.16 |
| Cn1cc(CN2CCOC(c3cccc(-c4cncnc4)n3)C2)cn1 (stereo unspecified) | -5.7 |
| Cn1nccc1CN1CCOC(c2cccc(-c3cncnc3)n2)C1 (stereo unspecified) | 14.3 |
| Cc1ncc(C(=O)N2CCOC(C(=O)N3CCCCCC3)C2)c(C)n1 (stereo unspecified) | 1.17 |
